# Like-named read-outs stand apart in the source and are kept apart here. Where a SMILES comes first, the peptide text is derived from it. Where no end group is shown, it is not given here.
# Key:
# [1] = test system: Candida albicans ATCC 90028
# Protocol: (§1) The three bacterial strains: Escherichia coli ATCC 25922, Pseudomonas aeruginosa ATCC 27853 Staphylococcus aureus ATCC 29213 as well as the fungal strain Candida albicans ATCC 90028 derived from clinical wound infections were obtained from the Department of Clinical Bacteriology at Lund University Hospital.
# (§2) Antimicrobial activities of the peptides were evaluated using the two-step microdilution assay ([Strömstedt et al., 2017]), which is designed for testing AMPs without activity-inhibiting components. Briefly, the microbial suspension was washed twice with 10 mM Tris buffer (set to pH 7.4 at 37°C). 96-well plates (U-shaped, untreated polystyrene) were prepared with peptide 2-fold serial dilutions in Tris buffer. The culture density was quantified by OD600, diluted in Tris buffer and 50,000 cells aliquoted to each well in the 96-well plate to a final 100 μl volume. After 5 h of aerobic incubation at 37°C, 5 μl of 20% TSB medium was added to each well (resulting in 1% TSB) and the plates were re-incubated. Growth-inhibition was monitored when controls produced pellet sizes of 2 mm in diameter (close to growth saturation), which equates to 5, 8, 10, and 12 h for E. coli, S. aureus, P. aeruginosa, and C. albicans, respectively. […] The MIC-values in Table 1, are medians from triplicate experiments, while the data presented in the Figure 2 are the same values relative to that of KR-12.
# [2] = test system: Escherichia coli ATCC 25922; details: ATCC 25922, 5 h
# Protocol: as §1, §2
# [3] = test system: Pseudomonas aeruginosa ATCC 27853
# Protocol: as §1, §2
# [4] = test system: Staphylococcus aureus ATCC 29213; details: ATCC 29213, 5 h
# Protocol: as §1, §2
# [5] = in vitro; details: 25% human serum
# Protocol: Proteolytic stability of the peptides were determined in diluted human serum (1:4 v/v, serum:PBS) at 37°C followed by LC-MS analysis. To examine the intact peptide after serum incubation, aliquots of each incubation mixture were taken at each time point for LC-MS analysis (Figure 5).
# Peptide stability was assayed in diluted human serum. 25% human serum was centrifuged at 13,000 rpm for 10 min to remove lipids and the supernatant was collected and incubated at 37°C for 15 min. […] Eighty μl of 6 M urea was added and incubated at 4°C for a further 10 min. 80 μl of 20% TCA was added and incubated at 4°C for a further 10 min. The samples were centrifuged at 13000 g for 10 min and the supernatant was analyzed by LC-MS.
# [6] = median of triplicate experiments
Molecule,"MIC C. albicans ([1]; ATCC 90028, 5 h) [µM]",MIC E. coli [2] [µM],"MIC P. aeruginosa ([3]; ATCC 27853, 5 h) [µM]",MIC S. aureus [4] [µM],also measured
RLFDKIRQVIRK [retro-KR-12],5,5,10,10,detection in serum after 20 min ([5]; 37°C): could not be detected; remaining at 10 min ([5]; human): ~20%
"CC(C)C[C@@H]1NC(=O)CNC(=O)[C@H](CC(N)=O)NC(=O)[C@H](CCCNC(=N)N)NC(=O)[C@H]([C@@H](C)O)NC(=O)[C@@H]2CSSC[C@@H]3NC(=O)[C@H]([C@@H](C)O)NC(=O)CNC(=O)CNC(=O)[C@H](C(C)C)NC(=O)[C@@H]4CSSC[C@H](NC(=O)[C@H]([C@@H](C)O)NC(=O)[C@H](CSSC[C@H](NC(=O)[C@H](C(C)C)NC(=O)[C@@H]5CCCN5C1=O)C(=O)NCC(=O)N[C@@H](CCC(=O)O)C(=O)N[C@@H]([C@@H](C)O)C(=O)N4)NC(=O)CNC(=O)[C@@H]1CCCN1C(=O)[C@H]([C@@H](C)O)NC(=O)[C@H](CC(N)=O)NC3=O)C(=O)N[C@@H](CO)C(=O)N[C@@H](Cc1c[nH]c3ccccc13)C(=O)N1CCC[C@H]1C(=O)N[C@@H](C(C)C)C(=O)N2 [kalata B1, reference compound]",–,–,–,–,remaining at 24 h ([5]; human): 80%
CC[C@H](C)[C@@H]1NC(=O)[C@H](CCCCN)NC(=O)[C@H](CC(=O)O)NC(=O)[C@H](Cc2ccccc2)NC(=O)[C@H](CC(C)C)NC(=O)[C@H](CCCNC(=N)N)NC(=O)CNC(=O)CNC(=O)[C@H](C)NC(=O)CNC(=O)[C@H](CCCNC(=N)N)NC(=O)[C@H](CC(C)C)NC(=O)[C@H](Cc2ccccc2)NC(=O)[C@H](CC(=O)O)NC(=O)[C@H](CCCCN)NC(=O)[C@H]([C@@H](C)CC)NC(=O)[C@H](CCCNC(=N)N)NC(=O)[C@H](CCC(N)=O)NC(=O)[C@H](C(C)C)NC(=O)[C@H]([C@@H](C)CC)NC(=O)[C@H](CCCNC(=N)N)NC(=O)[C@H](CCCCN)NC(=O)CNC(=O)CNC(=O)[C@H](C)NC(=O)CNC(=O)[C@H](CCCCN)NC(=O)[C@H](CCCNC(=N)N)NC(=O)[C@H]([C@@H](C)CC)NC(=O)[C@H](C(C)C)NC(=O)[C@H](CCC(N)=O)NC(=O)[C@H](CCCNC(=N)N)NC1=O [retro-cd4] (cyclo(AGGKRIVQRIKDFLRGAGGRLFDKIRQVIRKG)),–,–,–,–,"MIC C. albicans [1, 6]: 2.5 µM; MIC P. aeruginosa [3, 6]: 0.625 µM"
CC[C@H](C)[C@@H]1NC(=O)[C@H](CCCNC(=N)N)NC(=O)[C@H](CCC(N)=O)NC(=O)[C@H](C(C)C)NC(=O)[C@H]([C@@H](C)CC)NC(=O)[C@H](CCCNC(=N)N)NC(=O)[C@H](CCCCN)NC(=O)[C@H](C)NC(=O)CNC(=O)[C@H](CCCNC(=N)N)NC(=O)[C@H](CC(C)C)NC(=O)[C@H](Cc2ccccc2)NC(=O)[C@H](CC(=O)O)NC(=O)[C@H](CCCCN)NC(=O)[C@H]([C@@H](C)CC)NC(=O)[C@H](CCCNC(=N)N)NC(=O)[C@H](CCC(N)=O)NC(=O)[C@H](C(C)C)NC(=O)[C@H]([C@@H](C)CC)NC(=O)[C@H](CCCNC(=N)N)NC(=O)[C@H](CCCCN)NC(=O)[C@H](C)NC(=O)CNC(=O)[C@H](CCCNC(=N)N)NC(=O)[C@H](CC(C)C)NC(=O)[C@H](Cc2ccccc2)NC(=O)[C@H](CC(=O)O)NC(=O)[C@H](CCCCN)NC1=O [cd2] (cyclo(AKRIVQRIKDFLRGAKRIVQRIKDFLRG)),–,0.625,0.625,1.25,remaining at 6 h ([5]; human): ~30%
CC[C@H](C)[C@@H]1NC(=O)[C@H](CCCCN)NC(=O)[C@H](CC(=O)O)NC(=O)[C@H](Cc2ccccc2)NC(=O)[C@H](CC(C)C)NC(=O)[C@H](CCCNC(=N)N)NC(=O)CNC(=O)CNC(=O)[C@H](CS)NC(=O)CNC(=O)[C@H](CCCCN)NC(=O)[C@H](CCCNC(=N)N)NC(=O)[C@H]([C@@H](C)CC)NC(=O)[C@H](C(C)C)NC(=O)[C@H](CCC(N)=O)NC(=O)[C@H](CCCNC(=N)N)NC(=O)[C@H]([C@@H](C)CC)NC(=O)[C@H](CCCCN)NC(=O)[C@H](CC(=O)O)NC(=O)[C@H](Cc2ccccc2)NC(=O)[C@H](CC(C)C)NC(=O)[C@H](CCCNC(=N)N)NC(=O)CNC(=O)CNC(=O)[C@H](C)NC(=O)CNC(=O)[C@H](CCCCN)NC(=O)[C@H](CCCNC(=N)N)NC(=O)[C@H]([C@@H](C)CC)NC(=O)[C@H](C(C)C)NC(=O)[C@H](CCC(N)=O)NC(=O)[C@H](CCCNC(=N)N)NC1=O [Peptide 2retro-cd4] (cyclo(CGGRLFDKIRQVIRKGAGGRLFDKIRQVIRKG)),2.5,0.625,1.25,1.25,–

# Further lines, with some results ahead:
"MIC C. albicans ([1]; ATCC 90028, 5 h) [µM]",MIC E. coli [2] [µM],"MIC P. aeruginosa ([3]; ATCC 27853, 5 h) [µM]",MIC S. aureus [4] [µM],Molecule,also measured
2.5,0.625,1.25,1.25,CC[C@H](C)[C@@H]1NC(=O)[C@H](CCCCN)NC(=O)[C@H](CC(=O)O)NC(=O)[C@H](Cc2ccccc2)NC(=O)[C@H](CC(C)C)NC(=O)[C@H](CCCNC(=N)N)NC(=O)[C@H](C)NC(=O)CNC(=O)[C@H](CCCNC(=N)N)NC(=O)[C@H](CC(C)C)NC(=O)[C@H](Cc2ccccc2)NC(=O)[C@H](CC(=O)O)NC(=O)[C@H](CCCCN)NC(=O)[C@H]([C@@H](C)CC)NC(=O)[C@H](CCCNC(=N)N)NC(=O)[C@H](CCC(N)=O)NC(=O)[C@H](C(C)C)NC(=O)[C@H]([C@@H](C)CC)NC(=O)[C@H](CCCNC(=N)N)NC(=O)[C@H](CCCCN)NC(=O)[C@H](C)NC(=O)CNC(=O)[C@H](CCCCN)NC(=O)[C@H](CCCNC(=N)N)NC(=O)[C@H]([C@@H](C)CC)NC(=O)[C@H](C(C)C)NC(=O)[C@H](CCC(N)=O)NC(=O)[C@H](CCCNC(=N)N)NC1=O [retro-cd2] (cyclo(AKRIVQRIKDFLRGARLFDKIRQVIRKG)),–
0.625,0.625,0.625,1.25,CGGKRIVQRIKDFLRGAGGRLFDKIRQVIRKG-NH2 (C-terminus assumed) [retro-ld4*],"fold lower MIC compared to KR-12, C. albicans [1]: 16 fold"
2.5,1.25,1.25,1.25,CC[C@H](C)[C@@H]1NC(=O)[C@H](CCCCN)NC(=O)[C@H](CC(=O)O)NC(=O)[C@H](Cc2ccccc2)NC(=O)[C@H](CC(C)C)NC(=O)[C@H](CCCNC(=N)N)NC(=O)CNC(=O)[C@H](C)NC(=O)CNC(=O)[C@H](CCCNC(=N)N)NC(=O)[C@H](CC(C)C)NC(=O)[C@H](Cc2ccccc2)NC(=O)[C@H](CC(=O)O)NC(=O)[C@H](CCCCN)NC(=O)[C@H]([C@@H](C)CC)NC(=O)[C@H](CCCNC(=N)N)NC(=O)[C@H](CCC(N)=O)NC(=O)[C@H](C(C)C)NC(=O)[C@H]([C@@H](C)CC)NC(=O)[C@H](CCCNC(=N)N)NC(=O)[C@H](CCCCN)NC(=O)CNC(=O)[C@H](C)NC(=O)CNC(=O)[C@H](CCCCN)NC(=O)[C@H](CCCNC(=N)N)NC(=O)[C@H]([C@@H](C)CC)NC(=O)[C@H](C(C)C)NC(=O)[C@H](CCC(N)=O)NC(=O)[C@H](CCCNC(=N)N)NC1=O [retro-cd3] (cyclo(AGKRIVQRIKDFLRGAGRLFDKIRQVIRKG)),–
1.25,0.625,0.625,1.25,CC[C@H](C)[C@@H]1NC(=O)[C@H](CCCNC(=N)N)NC(=O)[C@H](CCC(N)=O)NC(=O)[C@H](C(C)C)NC(=O)[C@H]([C@@H](C)CC)NC(=O)[C@H](CCCNC(=N)N)NC(=O)[C@H](CCCCN)NC(=O)CNC(=O)[C@H](C)NC(=O)CNC(=O)[C@H](CCCNC(=N)N)NC(=O)[C@H](CC(C)C)NC(=O)[C@H](Cc2ccccc2)NC(=O)[C@H](CC(=O)O)NC(=O)[C@H](CCCCN)NC(=O)[C@H]([C@@H](C)CC)NC(=O)[C@H](CCCNC(=N)N)NC(=O)[C@H](CCC(N)=O)NC(=O)[C@H](C(C)C)NC(=O)[C@H]([C@@H](C)CC)NC(=O)[C@H](CCCNC(=N)N)NC(=O)[C@H](CCCCN)NC(=O)CNC(=O)[C@H](C)NC(=O)CNC(=O)[C@H](CCCNC(=N)N)NC(=O)[C@H](CC(C)C)NC(=O)[C@H](Cc2ccccc2)NC(=O)[C@H](CC(=O)O)NC(=O)[C@H](CCCCN)NC1=O [cd3] (cyclo(AGKRIVQRIKDFLRGAGKRIVQRIKDFLRG)),–
